Measurements: US6737383B1, “Herbicidal oxadiazolidines” (priority 1999, dated 2004)

Tests used:
crabgrass = test: Test B pre/postemergence crabgrass; type: in vivo, Digitaria sanguinalis
Summary of the method: (§1)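 Response is a visual 0-to-10 score relative to untreated plants, where 0 means no effect and 10 means complete control, taken twelve to sixteen days after application. Treatments went onto soil at planting and onto foliage of 1- to 4-leaf plants, using a surfactant-containing non-phytotoxic solvent.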

blackgrass = test: Test B pre/postemergence blackgrass; type: in vivo, Alopecurus myosuroides
Summary of the method: as §1

surinam grass = test: Test B pre/postemergence surinam grass; type: in vivo, Brachiaria decumbens
Summary of the method: as §1

wild oat = test: Test B pre/postemergence wild oat; type: in vivo, Avena fatua
Summary of the method: as §1

giant foxtail = test: Test B pre/postemergence giant foxtail; type: in vivo, Setaria faberii
Summary of the method: as §1

morningglory = test: Test B pre/postemergence morningglory; type: in vivo, Ipomoea hederacea
Summary of the method: as §1

duck salad = test: Test B flood test duck salad; type: in vivo, Heteranthera limosa
Summary of the method: (§2)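 Read-out is a visual response score from 0 (no effect) to 10 (complete control), assigned by comparison with untreated controls. Treatment was applied at the 2-leaf stage, and plants stayed in the greenhouse for twelve to sixteen days before scoring.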

velvetleaf = test: Test B pre/postemergence velvetleaf; type: in vivo, Abutilon theophrasti
Summary of the method: as §1

rape = test: Test B pre/postemergence rape; type: in vivo, Brassica napus
Summary of the method: as §1

smallflower flatsedge = test: Test B flood test smallflower flatsedge; type: in vivo, Cyperus difformis
Summary of the method: as §2

soybean = test: Test B pre/postemergence soybean; type: in vivo, Glycine max
Summary of the method: as §1

wheat = test: Test B pre/postemergence wheat; type: in vivo, Triticum aestivum
Summary of the method: as §1

bamyardgrass = test: Test B flood test barnyardgrass; type: in vivo, Echinochloa crus-galli
Summary of the method: as §2

bedstraw = test: Test B pre/postemergence bedstraw; type: in vivo, Galium aparine
Summary of the method: as §1

cocklebur = test: Test B pre/postemergence cocklebur; type: in vivo, Xanthium strumarium
Summary of the method: as §1

corn = test: Test B pre/postemergence corn; type: in vivo, Zea mays
Summary of the method: as §1

[1] = Postemergence, Rate 125 g/ha, scale of 0 to 10 where 0 is no effect and 10 is complete control
[2] = Preemergence, Rate 62 g/ha, scale 0 to 10 (0 no effect, 10 complete control)
[3] = Preemergence, Rate 125 g/ha, 0 is no effect, 10 is complete control
[4] = Preemergence, Rate 250 g/ha, scale 0 to 10, 0 is no effect, 10 is complete control
[5] = Preemergence, Rate 500 g/ha, scale 0 to 10 (0 no effect, 10 complete control)
[6] = Rate 62 g/ha, Postemergence, scale of 0 to 10 where 0 is no effect and 10 is complete control
[7] = Rate 250 g/ha, Postemergence, scale 0 to 10, 0 is no effect, 10 is complete control
[8] = Rate 500 g/ha, Postemergence, scale 0 to 10
[9] = Rate 62 g/ha, headed Pre-emergence (flood test species), scale 0 to 10 (0 no effect, 10 complete control)
[10] = Rate 125 g/ha, Pre-emergence, flood test species, scale 0 to 10 where 0 is no effect and 10 is complete control
[11] = Rate 250 g/ha, headed Pre-emergence (flood test species), scale 0 to 10 (0 no effect, 10 complete control)
[12] = Rate 500 g/ha, headed Pre-emergence (flood test species), scale 0 to 10 (0 no effect, 10 complete control)

CC(C)N(C(=O)n1oc(=O)n(C(C)(C)C)c1=O)c1ccccc1 [Compound 129]
5: Wild oats plant response rating (0 to 10 scale) (wild oat; [3]) | Ducksalad plant response rating (duck salad; [9]) | Ducksalad plant response rating (duck salad; [10]) | Ducksalad plant response rating (duck salad; [11]) | Plant response rating, Ducksalad (duck salad; [12]) | S. Flatsedge plant response rating (smallflower flatsedge; [10])
9: Crabgrass plant response rating (crabgrass; [5]) | Crabgrass plant response rating (crabgrass; [8]) | Giant foxtail plant response rating (giant foxtail; [5]) | Plant response rating, Giant foxtail (giant foxtail; [7]) | Giant foxtail plant response rating (giant foxtail; [8]) | S. Flatsedge plant response rating (smallflower flatsedge; [11]) | Plant response rating, S. Flatsedge (smallflower flatsedge; [12]) | Barnyardgrass plant response rating (bamyardgrass; [11]) | Plant response rating, Barnyardgrass (bamyardgrass; [12])
0: Blackgrass plant response rating (blackgrass; [1]) | Blackgrass plant response rating (blackgrass; [2]) | Blackgrass plant response rating (0 to 10 scale) (blackgrass; [3]) | Blackgrass plant response rating (blackgrass; [6]) | B. signalgrass plant response rating (surinam grass; [1]) | B. signalgrass plant response rating (surinam grass; [2]) | B. signalgrass plant response rating (surinam grass; [6]) | Wild oats plant response rating (wild oat; [1]) | Wild oats plant response rating (wild oat; [6]) | Morningglory plant response rating (morningglory; [2]) | Morningglory plant response rating (0 to 10 scale) (morningglory; [3]) | Morningglory plant response rating (morningglory; [4]) | Morningglory plant response rating (morningglory; [5]) | Velvetleaf plant response rating (velvetleaf; [1]) | Velvetleaf plant response rating (velvetleaf; [2]) | Velvetleaf plant response rating (0 to 10 scale) (velvetleaf; [3]) | Velvetleaf plant response rating (velvetleaf; [6]) | Plant response rating, Velvetleaf (velvetleaf; [7]) | Velvetleaf plant response rating (velvetleaf; [8]) | Rape plant response rating (rape; [1]) | Rape plant response rating (rape; [2]) | Rape plant response rating (0 to 10 scale) (rape; [3]) | Rape plant response rating (rape; [4]) | Rape plant response rating (rape; [5]) | Rape plant response rating (rape; [6]) | Plant response rating, Rape (rape; [7]) | Rape plant response rating (rape; [8]) | Soybean plant response rating (soybean; [2]) | Soybean plant response rating (0 to 10 scale) (soybean; [3]) | Soybean plant response rating (soybean; [4]) | Wheat plant response rating (wheat; [1]) | Wheat plant response rating (wheat; [2]) | Wheat plant response rating (0 to 10 scale) (wheat; [3]) | Wheat plant response rating (wheat; [6]) | Bedstraw plant response rating (bedstraw; [1]) | Bedstraw plant response rating (bedstraw; [2]) | Bedstraw plant response rating (0 to 10 scale) (bedstraw; [3]) | Bedstraw plant response rating (bedstraw; [4]) | Bedstraw plant response rating (bedstraw; [5]) | Bedstraw plant response rating (bedstraw; [6]) | Cocklebur plant response rating (cocklebur; [1]) | Cocklebur plant response rating (cocklebur; [2]) | Cocklebur plant response rating (0 to 10 scale) (cocklebur; [3]) | Cocklebur plant response rating (cocklebur; [4]) | Cocklebur plant response rating (cocklebur; [6]) | Plant response rating, Cocklebur (cocklebur; [7]) | Cocklebur plant response rating (cocklebur; [8]) | Corn plant response rating (corn; [1]) | Corn plant response rating (corn; [2]) | Corn plant response rating (0 to 10 scale) (corn; [3]) | Corn plant response rating (corn; [6])
4: Crabgrass plant response rating (crabgrass; [1]) | Blackgrass plant response rating (blackgrass; [5]) | Plant response rating, B. signalgrass (surinam grass; [7]) | Giant foxtail plant response rating (giant foxtail; [6]) | Morningglory plant response rating (morningglory; [1]) | Morningglory plant response rating (morningglory; [6]) | Velvetleaf plant response rating (velvetleaf; [4]) | Plant response rating, Soybean (soybean; [7]) | Soybean plant response rating (soybean; [8]) | Corn plant response rating (corn; [5]) | Corn plant response rating (corn; [8])
2: Crabgrass plant response rating (crabgrass; [6]) | Blackgrass plant response rating (blackgrass; [4]) | B. signalgrass plant response rating (0 to 10 scale) (surinam grass; [3]) | Plant response rating, Wild oats (wild oat; [7]) | Wild oats plant response rating (wild oat; [8]) | Soybean plant response rating (soybean; [1]) | Soybean plant response rating (soybean; [5]) | Plant response rating, Wheat (wheat; [7]) | Wheat plant response rating (wheat; [8]) | Corn plant response rating (corn; [4]) | Plant response rating, Corn (corn; [7])
7: Crabgrass plant response rating (0 to 10 scale) (crabgrass; [3]) | Crabgrass plant response rating (crabgrass; [4]) | B. signalgrass plant response rating (surinam grass; [5]) | Giant foxtail plant response rating (giant foxtail; [2]) | Giant foxtail plant response rating (0 to 10 scale) (giant foxtail; [3]) | Barnyardgrass plant response rating (bamyardgrass; [9])
6: Crabgrass plant response rating (crabgrass; [2]) | B. signalgrass plant response rating (surinam grass; Rate 500 g/ha, Postemergence, scale of 0 to 10 where 0 is no effect and 10 is complete control) | Wild oats plant response rating (wild oat; [4]) | Wild oats plant response rating (wild oat; [5]) | Giant foxtail plant response rating (giant foxtail; [1]) | Velvetleaf plant response rating (velvetleaf; [5])
1: Soybean plant response rating (soybean; [6])
8: Plant response rating, Crabgrass (crabgrass; [7]) | Giant foxtail plant response rating (giant foxtail; [4]) | Plant response rating, Morningglory (morningglory; [7]) | Morningglory plant response rating (morningglory; [8])
3: Plant response rating, Blackgrass (blackgrass; [7]) | Blackgrass plant response rating (blackgrass; [8]) | Wild oats plant response rating (wild oat; [2]) | S. Flatsedge plant response rating (smallflower flatsedge; [9]) | Wheat plant response rating (wheat; [4]) | Wheat plant response rating (wheat; [5]) | Barnyardgrass plant response rating (bamyardgrass; [10]) | Plant response rating, Bedstraw (bedstraw; [7]) | Bedstraw plant response rating (bedstraw; Rate 500 g/ha, Postemergence, scale 0 to 10, 0 no effect, 10 complete control)
